{
  "source": "paper PMC11272598",
  "about": "“RG7774 (Vicasinabin), an orally bioavailable cannabinoid receptor 2 (CB2R) agonist, decreases retinal vascular permeability, leukocyte adhesion, and ocular inflammation in animal models” (Frontiers in Pharmacology, 2024)",
  "key": {"[1]": {"experiment": "Microsomal clearance", "format": "in vitro ADME", "conditions": "pH 7.4", "method": "Commercially-available ultra-pooled microsome preparations from human (150 different donors) (BD UltraPool HLM 150, Beckton Dickinson, Japan) or mouse liver tissues (Beckton Dickinson) were incubated in 96-deep-well plates containing 0.1 M phosphate buffer (pH 7.4) at 37 °C on a TECAN liquid handling system equipped with Teleshake shakers and a warming device (Tecan Group Ltd., Switzerland). The NADPH regenerating system consisted of 30 mM glucose-6-phosphate disodium salt hydrate, 10 mM NADP, 30 mM MgCl2 × 6 H2O, and 5 mg/mL glucose-6-phosphate dehydrogenase (Roche Diagnostics, IN, USA) in 0.1 M potassium phosphate buffer (pH 7.4). The microsome mixture (0.5 mg/mL) was incubated with 1 μM RG7774 in 96-well plates at 37 °C. After 1, 3, 6, 9, 15, 25, 35, and 45 min, aliquots of the incubations (40 μL) were removed and reactions were quenched with 1:3 (v/v) acetonitrile containing internal standards. Samples were cooled, centrifuged, and analyzed by liquid chromatography-mass spectroscopy (LC-MS)/mass spectroscopy (MS). Log peak area ratios (test compound peak area/internal standard peak area) were plotted against incubation time with a linear fit. The calculated slope was used to determine the intrinsic clearance: CLint (μL/min/mg protein) = –slope (min–1) × 1000/protein concentration, mg/mL."}, "[2]": {"system": "LPS-induced leukocyte adhesion", "experiment": "LPS-induced leukocyte adhesion in mice with EIU (IVM)", "format": "in vivo, BALB/c mice", "conditions": "6 h after LPS", "method": "(§1) Male BALB/c mice aged 8–10 weeks and weighing 21–26 g (Charles River, QC, Canada) were housed in individually ventilated Allentown cages (Allentown Inc., NJ, United States). Maximum density was n = 5 per cage, with the same litter and sex. Male Lewis rats aged 7–10 weeks and weighing 200–300 g (Charles River, QC, Canada) were housed in static cages (Allentown Inc., NJ, United States), n = 2 per cage with the same litter and sex. Both mice and rats were maintained in a controlled environment (21°C–22°C, humidity range 40%–60%, and a 12 h light/dark cycle), with unrestricted access to food and water. All experiments were conducted in accordance with the standards and procedures of the Canadian Council on Animal Care ([CCAC, 2024]) and were approved by the Dalhousie University Committee on Laboratory Animals. The protocol #13-027 was approved for experimental work in mice. […] All experiments were performed and are reported in accordance with the ARRIVE guidelines ([Kilkenny et al., 2010]; [McGrath et al., 2010]).\nMice and rats were anesthetized with 5% isoflurane in 100% O2 and intraperitoneal (IP) injection of sodium pentobarbital (65 mg/kg), respectively, before receiving IVT injections of sterile 0.9% saline solution (control) or 125 ng/μL LPS (L8274, Sigma-Aldrich, St. Louis, MO, United States) diluted in 0.9% saline. Injections were administered through the pars plana using a 30-gauge needle and Hamilton syringe (Hamilton Company, Reno, NV, United States) with the assistance of a WILD M37 dissecting microscope (Leitz Canada, Vaughan, ON, Canada). Mice received 2 μL of the LPS solution; rats received 5 μL. To avoid touching the lens or damaging the eye, the tip of the needle was directed toward the posterior pole and only the beveled tip (2–3 mm) was allowed to enter the vitreal cavity. […]\n(§2) IVM was used for in vivo investigations of LPS-induced leukocyte recruitment as previously described ([Toguri et al., 2014]). […] The depth of anesthesia throughout the procedure was assessed by the absence of a toe-pinch reflex. […]"}, "[3]": {"system": "LPS-induced leukocyte adhesion", "experiment": "LPS-induced leukocyte adhesion in rats with EIU (IVM)", "format": "in vivo, Lewis rats", "conditions": "IV 1.0 mg/kg, 6 h after LPS", "method": "as §1, with “2010]). […]” for “2010]).”\nas §2"}, "[4]": {"target": "5-HT2A (h) (Homo sapiens, UniProt P28223)", "sequence (P28223 whole entry)": "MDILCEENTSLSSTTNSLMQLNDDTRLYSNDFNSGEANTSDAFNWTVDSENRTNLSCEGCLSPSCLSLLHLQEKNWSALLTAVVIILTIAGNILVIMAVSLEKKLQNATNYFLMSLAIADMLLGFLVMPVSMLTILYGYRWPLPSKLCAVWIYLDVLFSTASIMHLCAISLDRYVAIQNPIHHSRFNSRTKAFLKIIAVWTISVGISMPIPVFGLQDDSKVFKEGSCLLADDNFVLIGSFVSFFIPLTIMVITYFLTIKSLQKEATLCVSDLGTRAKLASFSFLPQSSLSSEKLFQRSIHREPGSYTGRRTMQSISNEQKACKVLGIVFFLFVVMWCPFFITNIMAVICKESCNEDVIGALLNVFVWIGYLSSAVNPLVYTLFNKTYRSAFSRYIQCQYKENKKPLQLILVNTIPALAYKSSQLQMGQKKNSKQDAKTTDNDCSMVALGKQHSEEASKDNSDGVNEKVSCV", "experiment": "CEREP radioligand binding", "conditions": "radioligand [^3H]-ketanserin", "text": "(§3) Supplement Table1.docx, table 3: Supplementary Table S3. RG7774 binding to non-CB1R/CB2R receptors, ion channels, transporters, and enzymes (CEREP, Celle l’Evescault, France; http://www.cerep.fr). | column: % inhibition of control SB (n = 2)"}, "[5]": {"target": "A2A (h) (Homo sapiens, UniProt P29274)", "sequence (P29274 whole entry)": "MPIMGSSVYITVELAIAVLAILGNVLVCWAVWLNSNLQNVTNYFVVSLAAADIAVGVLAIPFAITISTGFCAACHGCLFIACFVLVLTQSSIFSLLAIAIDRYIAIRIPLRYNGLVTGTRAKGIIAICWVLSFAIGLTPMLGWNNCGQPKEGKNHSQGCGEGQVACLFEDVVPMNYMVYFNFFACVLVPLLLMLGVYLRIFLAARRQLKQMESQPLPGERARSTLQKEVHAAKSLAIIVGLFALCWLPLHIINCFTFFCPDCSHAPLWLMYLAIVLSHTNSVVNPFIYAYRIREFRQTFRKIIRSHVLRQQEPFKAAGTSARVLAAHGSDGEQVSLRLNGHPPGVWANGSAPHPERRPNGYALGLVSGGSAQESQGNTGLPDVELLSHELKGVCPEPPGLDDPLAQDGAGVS", "experiment": "CEREP radioligand binding", "conditions": "radioligand [^3H]-CGS 21680", "text": "as §3"}, "[6]": {"system": "Alpha 2 (non-selective)", "experiment": "CEREP radioligand binding", "conditions": "radioligand [^3H]-RX 821002", "text": "as §3"}, "[7]": {"target": "CCK2 (CCKB) (h) (Homo sapiens, UniProt P32239)", "sequence (P32239 whole entry)": "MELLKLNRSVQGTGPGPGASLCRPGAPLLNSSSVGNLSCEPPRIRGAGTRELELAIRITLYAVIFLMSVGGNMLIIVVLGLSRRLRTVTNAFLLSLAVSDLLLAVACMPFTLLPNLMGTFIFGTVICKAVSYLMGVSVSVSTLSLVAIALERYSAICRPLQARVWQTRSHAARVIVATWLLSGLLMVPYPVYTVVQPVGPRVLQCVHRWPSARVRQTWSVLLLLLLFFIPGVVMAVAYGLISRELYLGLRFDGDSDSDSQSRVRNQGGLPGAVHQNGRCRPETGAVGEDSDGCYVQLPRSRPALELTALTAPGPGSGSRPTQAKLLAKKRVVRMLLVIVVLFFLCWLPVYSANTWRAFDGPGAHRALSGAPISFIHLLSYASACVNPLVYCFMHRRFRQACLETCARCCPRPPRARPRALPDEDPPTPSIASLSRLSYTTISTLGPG", "experiment": "CEREP radioligand binding", "conditions": "radioligand [^125I]-CCK-8s", "text": "as §3"}, "[8]": {"target": "CGRP (h) (Homo sapiens, UniProt O60894+Q16602)", "sequence (Q16602 23-461)": "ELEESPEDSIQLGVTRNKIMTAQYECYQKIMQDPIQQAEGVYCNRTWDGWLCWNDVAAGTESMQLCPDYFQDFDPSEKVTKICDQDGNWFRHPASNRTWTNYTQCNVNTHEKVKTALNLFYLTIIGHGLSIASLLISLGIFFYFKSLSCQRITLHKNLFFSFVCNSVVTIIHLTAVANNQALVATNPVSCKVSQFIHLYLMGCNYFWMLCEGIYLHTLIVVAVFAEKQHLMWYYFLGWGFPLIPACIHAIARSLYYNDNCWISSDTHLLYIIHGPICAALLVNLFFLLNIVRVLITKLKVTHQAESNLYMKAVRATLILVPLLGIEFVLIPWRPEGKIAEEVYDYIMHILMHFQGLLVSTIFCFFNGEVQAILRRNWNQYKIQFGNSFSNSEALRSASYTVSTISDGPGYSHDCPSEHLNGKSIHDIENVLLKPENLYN", "sequence (O60894 27-148)": "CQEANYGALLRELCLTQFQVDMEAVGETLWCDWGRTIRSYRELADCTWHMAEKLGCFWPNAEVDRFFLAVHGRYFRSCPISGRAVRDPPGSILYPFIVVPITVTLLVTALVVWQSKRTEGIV", "experiment": "CEREP radioligand binding", "conditions": "radioligand [^125I]-hCGRPα", "text": "as §3"}, "[9]": {"system": "Cl- channel (GABA-gated)", "experiment": "CEREP radioligand binding", "conditions": "radioligand [^35S]-TBPS", "text": "as §3"}, "[10]": {"system": "P2Y", "experiment": "CEREP radioligand binding", "conditions": "radioligand [^35S]-dATPαS", "text": "as §3"}},
  "data": [
    {"smiles": "Cn1nnnc1Cn1nnc2c(N3CC[C@H](O)C3)nc(C(C)(C)C)nc21", "note": "[RG7774, (S)-1-(5-tert-butyl-3-[(1-methyl-1H-tetrazol-5-yl)methyl]-3H-[1,2,3]triazolo[4,5-d]pyrimidin-7-yl)pyrrolidin-3-ol]", "values": [
      {"measurement": "microsomal CLint at 1 µM", "setting": "[1]; human", "result": 21.7, "unit": "µL/min/mg"},
      {"measurement": "microsomal CLint at 1 µM", "setting": "[1]; mouse, mouse liver microsomes", "result": 15, "unit": "µL/min/mg"},
      {"measurement": "microsomal CLint at 1 µM", "setting": "[1]; rat, rat microsomes", "result": 25, "unit": "µL/min/mg"},
      {"measurement": "decrease in leukocyte adhesion compared to vehicle control", "setting": "[2]; single IV 0.03 mg/kg", "result": 21, "unit": "%"},
      {"measurement": "decrease in leukocyte adhesion compared to vehicle control", "setting": "[2]; single IV 0.3 mg/kg", "result": 65, "unit": "%"},
      {"measurement": "decrease in leukocyte adhesion compared to vehicle control", "setting": "[2]; single IV 3 mg/kg", "result": 82, "unit": "%"},
      {"measurement": "decrease in leukocyte adhesion compared to vehicle control", "setting": "[3]", "result": 60, "unit": "%"},
      {"measurement": "% inhibition of control SB (n = 2)", "setting": "[4]", "result": "–4.8%"},
      {"measurement": "% inhibition of control SB (n = 2)", "setting": "[5]", "result": 12.4, "unit": "%"},
      {"measurement": "% inhibition of control SB (n = 2)", "setting": "[6]", "result": "–20.9%"},
      {"measurement": "% inhibition of control SB (n = 2)", "setting": "[7]", "result": "–7.6%"},
      {"measurement": "% inhibition of control SB (n = 2)", "setting": "[8]", "result": 1.7, "unit": "%"},
      {"measurement": "% inhibition of control SB (n = 2)", "setting": "[9]", "result": 17.2, "unit": "%"},
      {"measurement": "% inhibition of control SB (n = 2)", "setting": "[10]", "result": 2.3, "unit": "%"}
    ]}
  ]
}
